Assay results published in patent US20060122153A1, “Antineoplastic ether lipid compounds with modifications at the sn-2 carbon” (priority 2003, published 2006).

Tests used:
UO-31 = assay: NCI growth inhibition screen, renal panel; type: cell-based, human; design: key to Performance as compared to ET-18-O—CH3: = means equivalent activity; + means that it appears to be significantly better (i.e., by ˜2x); < means it appears to be less active than ET18OCH3 (˜2x); a combination like =/+ or </+ means that activity is dependent upon the isomer; a combination like =/+ or </+ means that activity is dependent upon the isomer; conditions: for Performance as compared to ET-18-O—CH3: UO-31, Renal, from GI50s; for activity compared to ET-18-OCH3 (in words): UO-31 cell line, NCI screen
Method: (§1) Candidates deemed suitable for in vivo testing were then synthesized in large scale quantities and some of this material was sent to the NCI's Developmental Therapeutics Program for a battery of growth inhibitory studies against various human tumor cell lines (60 cell lines, 9 different panels). The remainder of the material was used to assess in vivo efficacy using murine tumor models. Additionally, studies were conducted on the lead candidates to discern mechanism of action with particular emphasis on these agents apoptotic ability as measured by caspase 3 activity. The details (materials and methods) for these various assays are described further in the following discussion.
(§2) Ten compounds were also sent to NCI's Drug Discovery Program for screening against numerous human tumor cell lines (9 panels total: renal ovarian, colon, CNS, non-small cell lung, leukemia, breast, melanoma, and prostate). The data are shown in FIGS. 2a-i which also include data regarding D- and L-ET-18-OCH3 (listed as L-EL and D-EL in the figures). Upon examining the data, one is struck by how 1R and 1a′S standout in comparison to the other compounds, especially for the renal, ovarian, colon, and CNS panels.

IGROV1 = assay: NCI growth inhibition screen, ovarian panel; type: cell-based, human; design: key: = means equivalent activity; + means that it appears to be significantly better (i.e., by ˜2x); < means it appears to be less active than ET18OCH3 (˜2x); a combination like =/+ or </+ means that activity is dependent upon the isomer; a combination like =/+ or </+ means that activity is dependent upon the isomer; conditions: from GI50s
Method: as §1, §2

OVCAR-3 = assay: NCI growth inhibition screen, ovarian panel; type: cell-based, human; design: key: = means equivalent activity; + means that it appears to be significantly better (i.e., by ˜2x); < means it appears to be less active than ET18OCH3 (˜2x); a combination like =/+ or </+ means that activity is dependent upon the isomer; a combination like =/+ or </+ means that activity is dependent upon the isomer; conditions: OVCAR-3, Ovarian; from GI50s
Method: as §1, §2

OVCAR-8 = assay: NCI growth inhibition screen, ovarian panel; type: cell-based, human; design: key: = means equivalent activity; + means that it appears to be significantly better (i.e., by ˜2x); < means it appears to be less active than ET18OCH3 (˜2x); a combination like =/+ or </+ means that activity is dependent upon the isomer; a combination like =/+ or </+ means that activity is dependent upon the isomer; conditions: OVCAR-8, Ovarian; from GI50s
Method: as §1, §2

SK-OV-3 = assay: NCI growth inhibition screen, ovarian panel; type: cell-based, human; design: key: = means equivalent activity; + means that it appears to be significantly better (i.e., by ˜2x); < means it appears to be less active than ET18OCH3 (˜2x); a combination like =/+ or </+ means that activity is dependent upon the isomer; a combination like =/+ or </+ means that activity is dependent upon the isomer; conditions: SK-OV-3, Ovarian; from GI50s
Method: as §1, §2

LOX IMVI = assay: NCI growth inhibition screen, melanoma panel; type: cell-based, human; design: key: = means equivalent activity; + means that it appears to be significantly better (i.e., by ˜2x); < means it appears to be less active than ET18OCH3 (˜2x); a combination like =/+ or </+ means that activity is dependent upon the isomer; a combination like =/+ or </+ means that activity is dependent upon the isomer; conditions: from GI50s
Method: as §1, §2

M14 = assay: NCI growth inhibition screen, melanoma panel; type: cell-based, human; design: key: = means equivalent activity; + means that it appears to be significantly better (i.e., by ˜2x); < means it appears to be less active than ET18OCH3 (˜2x); a combination like =/+ or </+ means that activity is dependent upon the isomer; a combination like =/+ or </+ means that activity is dependent upon the isomer; conditions: from GI50s
Method: as §1, §2

SK-MEL-28 = assay: NCI growth inhibition screen, melanoma panel; type: cell-based, human; design: key: = means equivalent activity; + means that it appears to be significantly better (i.e., by ˜2x); < means it appears to be less active than ET18OCH3 (˜2x); a combination like =/+ or </+ means that activity is dependent upon the isomer; a combination like =/+ or </+ means that activity is dependent upon the isomer; conditions: SK-MEL-28, Melanoma; from GI50s
Method: as §1, §2

SK-MEL-5 = assay: NCI growth inhibition screen, melanoma panel; type: cell-based, human; design: key: = means equivalent activity; + means that it appears to be significantly better (i.e., by ˜2x); < means it appears to be less active than ET18OCH3 (˜2x); a combination like =/+ or </+ means that activity is dependent upon the isomer; a combination like =/+ or </+ means that activity is dependent upon the isomer; conditions: SK-MEL-5, Melanoma; from GI50s
Method: as §1, §2

UACC-257 = assay: NCI growth inhibition screen, melanoma panel; type: cell-based, human; design: key: = means equivalent activity; + means that it appears to be significantly better (i.e., by ˜2x); < means it appears to be less active than ET18OCH3 (˜2x); a combination like =/+ or </+ means that activity is dependent upon the isomer; a combination like =/+ or </+ means that activity is dependent upon the isomer; conditions: UACC-257, Melanoma; from GI50s
Method: as §1, §2

UACC62 = assay: NCI growth inhibition screen, melanoma panel; type: cell-based, human; design: key: = means equivalent activity; + means that it appears to be significantly better (i.e., by ˜2x); < means it appears to be less active than ET18OCH3 (˜2x); a combination like =/+ or </+ means that activity is dependent upon the isomer; a combination like =/+ or </+ means that activity is dependent upon the isomer; conditions: from GI50s
Method: as §1, §2

[1] = tested on: platelets in dog whole blood; assay: Platelet aggregation in whole blood (Chronolog whole blood aggregometer)
Method: Briefly, whole citrated blood is diluted 1:2 with sterile saline and placed in a warm chamber with a mini stir bar. An electronic probe, measuring electrical resistance, is inserted in the sample. The aggregometer is calibrated and the baseline is observed to detect any spontaneous aggregation. The test sample is added and allowed to run for at least 6 minutes. If the sample is an agonist the platelets will start to aggregate and stick to the electronic probe causing resistance across the electrodes to increase. This resistance, in ohms, is measured 6 minutes post addition of sample. The test samples are run at 25, 100, 200, 400 and 800 uM and compared to 100 uM L-ET-18-OCH3.
Collection of Blood Sample for in vitro Platelet Aggregation Testing: Venous blood is collected in 4.5 mL Vacutainer tubes containing 0.129 M sodium citrate using a 21G needle or larger. Blood is immediately mixed by gentle inversion 15-20 times and kept at room temperature. Dilution ratio is 1 to 9 (3.8% citrate solution:blood). One (2.0 mL) Vacutainer tube containing EDTA is also collected for platelet counts. Complete blood counts (CBC) are measured on the CDC Technologies Hemavet 1500 to ensure that the test subject's platelets are within normal range. Amy vials of hemolytic blood or blood containing any clots should be discarded. Platelet aggregation testing must be completed within 3 hours of blood collection. After this time the ability of platelets to aggregate decreases.
Dilutions were prepared in PBS or saline at 40× concentration. (25 uL test sample are added to 1000 uL diluted blood (1:40)).

SMILES | Performance as compared to ET-18-O—CH3 (UO-31) | activity compared to ET-18-OCH3 (in words) (UO-31) | Performance as compared to ET-18-O—CH3 (IGROV1) | Performance as compared to ET-18-O—CH3 (OVCAR-3) | Performance as compared to ET-18-O—CH3 (OVCAR-8) | Performance as compared to ET-18-O—CH3 (SK-OV-3) | Performance as compared to ET-18-O—CH3 (LOX IMVI) | Performance as compared to ET-18-O—CH3 (M14) | Performance as compared to ET-18-O—CH3 (SK-MEL-28) | Performance as compared to ET-18-O—CH3 (SK-MEL-5) | Performance as compared to ET-18-O—CH3 (UACC-257) | Performance as compared to ET-18-O—CH3 (UACC62) | Relative Platelet Aggregation (Ohms) ([1]; 25 μM) | Relative Platelet Aggregation (Ohms) ([1]; 100 μM) | Relative Platelet Aggregation (Ohms) ([1]; 200 μM) | Relative Platelet Aggregation (Ohms) ([1]; 400 μM) | Relative Platelet Aggregation (Ohms) ([1]; 800 μM) | platelet aggregation response (in words) [1]
CCCCCCCCCCCCCCCCCCOC[C@@H](COP(=O)([O-])OCC[N+](C)(C)C)OS(C)(=O)=O [1a′S] | 64 | more active | 0 | 0 | 0 | 0 | 0 | 0 | </= | 0 | 0 | 64 | 0 | 0 | 0 | 0 | 0 | 
CCCCCCCCCCCCCCCCCCOCC(COP(=O)([O-])OCC[N+](C)(C)C)OS(C)(=O)=O (centres unmarked) [Compound 1aR] | + | more active | = | = | = | = | = | = | =/+ | = | = | + | 0 | 0 | 0 | 0 | 0 | none of the “L” isomer compounds (1cR or 1aR) evoked an aggregatory response
